PubChem BioAssay (NCI)
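Values below derive from 48-hour exposures of cells grown in 96-well plates, with endpoints linearly interpolated between the two concentrations bracketing the appropriate inhibition level. At the GI50, growth is halved. Definition used: TGI = concentration required for complete inhibition of growth.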

What was measured:
Experiment in all cases: NCI anticancer screen, dose series, 48 h
[1] = test system: KM12 colon
[2] = test system: IGROV1 ovarian
[3] = test system: UACC-257 melanoma
[4] = test system: RXF 393 renal
[5] = test system: HT29 colon
[6] = test system: SW-620 colon
[7] = test system: MALME-3M melanoma
[8] = test system: SF-539 CNS
[9] = test system: SR leukemia
[10] = test system: UO-31 renal
[11] = test system: CCRF-CEM leukemia
[12] = test system: NCI-H226 lung
[13] = test system: SK-MEL-5 melanoma
[14] = test system: U251 CNS
[15] = test system: PC-3 prostate
[16] = test system: SNB-19 CNS
[17] = test system: SN12C renal
[18] = test system: DU-145 prostate
[19] = test system: NCI-H522 lung
[20] = test system: HOP-92 NSCLC
[21] = test system: HOP-62 NSCLC
[22] = test system: SK-MEL-2 melanoma
[23] = test system: SF-268 CNS
[24] = test system: TK-10 renal
[25] = test system: OVCAR-4 ovarian
[26] = test system: K-562 leukemia
[27] = test system: 786-0 renal
[28] = test system: HS 578T breast
[29] = test system: ACHN renal
[30] = test system: A549 NSCLC
[31] = test system: RPMI-8226 leukemia
[32] = test system: OVCAR-8 ovarian
[33] = test system: MDA-MB-435
[34] = test system: EKVX NSCLC
[35] = test system: SNB-75 CNS
[36] = test system: NCI-H460 lung
[37] = test system: SK-OV-3 ovarian
[38] = test system: A498 renal
[39] = test system: NCI/ADR-RES ovarian
[40] = test system: HCC-2998 colon
[41] = test system: M14 melanoma
[42] = test system: MDA-MB-231 breast
[43] = test system: NCI-H23 lung
[44] = test system: SF-295 CNS
[45] = test system: SK-MEL-28 melanoma
[46] = test system: LOX IMVI melanoma
[47] = test system: CAKI-1 renal
[48] = test system: MCF7 breast
[49] = test system: OVCAR-5 ovarian
[50] = test system: HCT-15 colon
[51] = test system: HCT-116 colon
[52] = test system: MOLT-4 leukemia
[53] = test system: COLO 205 colon
[54] = test system: UACC-62 melanoma

SMILES: NC(N)=Nc1ccc(Oc2cccc(NC(N)=Nc3ccc(Cl)c(C(F)(F)F)c3)c2)cn1
- GI50 [1]: 1.47 µM
- TGI [1]: 2.9 µM
- GI50 [2]: 1.07 µM
- TGI [2]: 2.51 µM
- GI50 [3]: 2.87 µM
- TGI [3]: 12.8 µM
- GI50 [4]: 1.83 µM
- TGI [4]: 4.78 µM
- GI50 [5]: 1.91 µM
- TGI [5]: 5.64 µM
- GI50 [6]: 1.94 µM
- TGI [6]: 4.83 µM
- GI50 [7]: 2.3 µM
- TGI [7]: 7.91 µM
- GI50 [8]: 1.54 µM
- TGI [8]: 3.01 µM
- GI50 [9]: 1.42 µM
- TGI [9]: 3.76 µM
- GI50 [10]: 12.9 µM
- TGI [10]: 29.6 µM
- GI50 [11]: 2.27 µM
- TGI [11]: 10.3 µM
- GI50 [12]: 2.18 µM
- TGI [12]: 6.25 µM
- GI50 [13]: 2.53 µM
- TGI [13]: 6.94 µM
- GI50 [14]: 1.26 µM
- TGI [14]: 2.83 µM
- GI50 [15]: 1.07 µM
- TGI [15]: 2.62 µM
- GI50 [16]: 1.28 µM
- TGI [16]: 2.68 µM
- GI50 [17]: 2.2 µM
- TGI [17]: 8.97 µM
- GI50 [18]: 2.22 µM
- TGI [18]: 5.27 µM
- GI50 [19]: 2.19 µM
- TGI [19]: 5.81 µM
- GI50 [20]: 1.16 µM
- TGI [20]: 3.43 µM
- GI50 [21]: 2.05 µM
- TGI [21]: 5.76 µM
- GI50 [22]: 1.78 µM
- TGI [22]: 3.37 µM
- GI50 [23]: 1.09 µM
- TGI [23]: 2.54 µM
- GI50 [24]: 4.35 µM
- TGI [24]: 21.7 µM
- GI50 [25]: 2.53 µM
- TGI [25]: 9.36 µM
- GI50 [26]: 1.51 µM
- TGI [26]: 10.6 µM
- GI50 [27]: 4.83 µM
- TGI [27]: 24.8 µM
- GI50 [28]: 1.78 µM
- TGI [28]: 4.63 µM
- GI50 [29]: 13.3 µM
- TGI [29]: 29.4 µM
- GI50 [30]: 1.91 µM
- TGI [30]: 17.4 µM
- GI50 [31]: 1.56 µM
- TGI [31]: 4 µM
- GI50 [32]: 3.3 µM
- TGI [32]: 18.7 µM
- GI50 [33]: 1.66 µM
- TGI [33]: 3.66 µM
- GI50 [34]: 2.77 µM
- TGI [34]: 13.5 µM
- GI50 [35]: 0.515 µM
- TGI [35]: 2.92 µM
- GI50 [36]: 1.48 µM
- TGI [36]: 3.6 µM
- GI50 [37]: 2.7 µM
- TGI [37]: 10.4 µM
- GI50 [38]: 1.69 µM
- TGI [38]: 6.24 µM
- GI50 [39]: 40.5 µM
- TGI [39]: > 100 µM
- GI50 [40]: 1.67 µM
- TGI [40]: 3.37 µM
- GI50 [41]: 3.22 µM
- TGI [41]: 19.3 µM
- GI50 [42]: 1.99 µM
- TGI [42]: 5.23 µM
- GI50 [43]: 1.73 µM
- TGI [43]: 4.15 µM
- GI50 [44]: 2.08 µM
- TGI [44]: 7.97 µM
- GI50 [45]: 2.04 µM
- TGI [45]: 5.92 µM
- GI50 [46]: 1.4 µM
- TGI [46]: 2.74 µM
- GI50 [47]: 3.29 µM
- TGI [47]: 17.4 µM
- GI50 [48]: 1.24 µM
- TGI [48]: 3.01 µM
- GI50 [49]: 1.89 µM
- TGI [49]: 5.73 µM
- GI50 [50]: 19.6 µM
- TGI [50]: 67.6 µM
- GI50 [51]: 1.73 µM
- TGI [51]: 4.86 µM
- GI50 [52]: 2.16 µM
- TGI [52]: 8.08 µM
- GI50 [53]: 1.43 µM
- TGI [53]: 3.08 µM
- GI50 [54]: 2.38 µM
- TGI [54]: 12.7 µM
